Experimental data published in the RepoRT retention time repository (doi:10.1016/j.foodchem.2021.129757).

Columns and labels:
Details in all cases: stereoisomer not certain
[1] = RP, Phenomenex Synergi Hydro-RP, 250 × 2 mm, 4 µm, 25 °C, 0.2 mL/min, estimated dead time 2.5 min; A: water + 0.1% formic acid, pH 3; B: acetonitrile + 0.1% formic acid, pH 3; gradient (min/%B) 0/0.5 7/0.5 12/12.5 25/16.3 47/35 48/65 50/65 50.1/0.5
[2] = RP, Agilent ZORBAX RRHD Eclipse Plus C18, 50 × 2.1 mm, 1.8 µm, 30 °C, 0.4 mL/min, estimated dead time 0.28 min; A: water + 0.1% formic acid, pH 3; B: acetonitrile + 0.1% formic acid, pH 3; gradient (min/%B) 0/1 5/10 8/25 9.1/99 10/99 12/1
[3] = RP, Merck LiChrospher RP-18, 250 × 4 mm, 5 µm, 35 °C, 0.3 mL/min, estimated dead time 6.7 min; A: water + 0.5% formic acid; B: acetonitrile + 0.5% formic acid; gradient (min/%B) 0/5 10/5 30/15 45/20 65/20 95/54 110/63 115/5 135/5
[4] = RP, Waters ACQUITY UPLC BEH C18, 100 × 2.1 mm, 1.7 µm, 65 °C, 0.4 mL/min, estimated dead time 0.55 min; A: water + 0.1% formic acid, pH 3; B: 80% acetonitrile + 20% acetone + 0.1% formic acid, pH 3; gradient (min/%B) 0/0 5/100 5.5/0 6/0
[5] = RP, Waters ACQUITY UPLC HSS T3, 100 × 2.1 mm, 1.8 µm, 30 °C, 0.4 mL/min, estimated dead time 0.55 min; A: water + 0.1% formic acid, pH 3; B: acetonitrile + 0.1% formic acid, pH 3; gradient (min/%B) 0/0 2/0 15/100 22/100 22.1/0 26/0
[6] = RP, 50 × 0.5 mm, 2.7 µm, 35 °C, 0.01 mL/min, estimated dead time 0.62 min; A: water + 0.1% formic acid, pH 3; B: acetonitrile + 0.1% formic acid, pH 3; gradient (min/%B) 0/5 12/95 14/95 16/5
[7] = RP, Phenomenex Luna Omega Polar C18, 100 × 2.1 mm, 1.6 µm, 40 °C, 0.5 mL/min, estimated dead time 0.44 min; A: water + 0.1% formic acid + 10 mM ammonium formate; B: acetonitrile; gradient (min/%B) 0/5 8/20 10/100 12/100 12.1/5 14/5
[8] = Other, Phenomenex Kinetex PFP, 100 × 4.6 mm, 5 µm, 45 °C, 0.6 mL/min, estimated dead time 1.8 min; A: water + 0.1% trifluoroacetic acid, pH 2; B: methanol; gradient (min/%B) 0/40 20/72 21/40
[9] = RP, Waters Atlantis T3, 100 × 2.1 mm, 3 µm, 40 °C, 0.3 mL/min, estimated dead time 0.73 min; A: water + 0.1% trifluoroacetic acid, pH 2; B: acetonitrile + 0.1% trifluoroacetic acid, pH 2; gradient (min/%B) 0/10 1/10 6/40 7/50 8/50 14/70 16/80 20/10 25/10
[10] = RP, Agilent ZORBAX Eclipse XDB-C18, 100 × 2.1 mm, 1.8 µm, 50 °C, 0.4 mL/min, estimated dead time 0.55 min; A: water + 0.1% formic acid, pH 3; B: methanol + 0.1% formic acid, pH 3; gradient (min/%B) 0/2 10/100 14.5/100 14.51/2 16.5/2
[11] = RP, Agilent ZORBAX RRHD Eclipse Plus C18, 50 × 2.1 mm, 1.8 µm, 30 °C, 0.4 mL/min, estimated dead time 0.28 min; A: water + 0.1% formic acid, pH 3; B: acetonitrile + 0.1% formic acid, pH 3; gradient (min/%B) 0/1 5/10 8/25 9.1/99 10/99 12/99
[12] = RP, Waters ACQUITY UPLC BEH Shield RP18, 100 × 2.1 mm, 1.7 µm, 30 °C, 0.6 mL/min, estimated dead time 0.37 min; A: water + 0.1% formic acid, pH 3; B: acetonitrile + 0.1% formic acid, pH 3; gradient (min/%B) 0/0 2/0 7/10 22/95 22.1/0 26/0
[13] = RP, Phenomenex Luna Omega Polar C18, 100 × 2.1 mm, 1.6 µm, 40 °C, 0.5 mL/min, estimated dead time 0.44 min; A: water + 0.5% formic acid; B: acetonitrile + 0.5% formic acid; gradient (min/%B) 0/5 3/50 3.1/100 5/100 5.1/5 7/5
[14] = RP, Merck Supelco SUPELCOSIL LC-C18, 250 × 4.6 mm, 5 µm, 40 °C, 1 mL/min, estimated dead time 2.6 min; A: water + 0.1% trifluoroacetic acid, pH 2; B: acetonitrile + 0.1% trifluoroacetic acid, pH 2; gradient (min/%B) 0/5 45/35 47/75 49/35 50/5
[15] = RP, Phenomenex Kinetex EVO C18, 100 × 2.1 mm, 2.6 µm, 40 °C, 0.4 mL/min, estimated dead time 0.55 min; A: water + 0.2% formic acid; B: acetonitrile + 0.2% formic acid; gradient (min/%B) 0/5 0.5/5 7/95 8/95 8.5/5 12/5
[16] = RP, Phenomenex Luna C18, 150 × 4.6 mm, 3 µm, 25 °C, 0.5 mL/min, estimated dead time 3.2 min; A: water + 0.1% formic acid, pH 3; B: acetonitrile + 0.1% formic acid, pH 3; gradient (min/%B) 0/0 30/30 35/40 50/80 52/80 60/0 65/0
[17] = RP, Waters ACQUITY UPLC BEH Shield RP18, 150 × 2.1 mm, 1.7 µm, 40 °C, 0.4 mL/min, estimated dead time 0.83 min; A: water + 0.1% formic acid, pH 3; B: acetonitrile + 0.1% formic acid, pH 3; gradient (min/%B) 0/0 30/50 31/100 37/100 37.1/0
[18] = RP, Agilent InfinityLab Poroshell 120 EC-C18, 100 × 3 mm, 2.7 µm, 25 °C, 0.4 mL/min, estimated dead time 1.1 min; A: water + 0.1% formic acid, pH 3; B: acetonitrile + 0.1% formic acid, pH 3; gradient (min/%B) 0/5 10/25 20/40 24/90 25/90 26/5 30/5
[19] = Other, Phenomenex Kinetex PFP, 100 × 4.6 mm, 2.6 µm, 35 °C, 1.5 mL/min, estimated dead time 0.71 min; A: water + 0.1% trifluoroacetic acid, pH 2; B: acetonitrile + 0.1% trifluoroacetic acid, pH 2; gradient (min/%B) 0/1 7/7.5 14/7.6 17/10 18.5/12 20/12.5 24/30 25/90 25.1/1 32/1
[20] = RP, Phenomenex Synergi Hydro-RP, 150 × 2 mm, 4 µm, 30 °C, 0.5 mL/min, estimated dead time 0.6 min; A: water + 0.1% formic acid, pH 3; B: acetonitrile + 0.1% formic acid, pH 3; gradient (min/%B) 0/5 1/5 35/45 40/100 45/100
[21] = RP, 100 × 0.5 mm, 2.7 µm, 45 °C, 0.015 mL/min, estimated dead time 0.83 min; A: water + 0.9% formic acid; B: acetonitrile + 0.9% formic acid; gradient (min/%B) 0/1 0.5/1 4/95 4.5/1 5/1
[22] = RP, Waters ACQUITY UPLC HSS T3, 100 × 2.1 mm, 50 °C; A: water + 0.1% formic acid, pH 3; B: 30% methanol + 70% acetonitrile + 0.1% formic acid, pH 3; gradient (min/%B) 0/5 1/8 2/15 3/40 4/70 4.5/100 5/100 6.4/100 6.6/5 6.8/5 7/5
[23] = RP, 150 × 2.1 mm, 2.6 µm, 40 °C, 0.35 mL/min, estimated dead time 0.94 min; A: water + 0.1% formic acid, pH 3; B: acetonitrile + 0.1% formic acid, pH 3; gradient (min/%B) 0/0 1/5 7/45 8.5/80 10.5/80 11/5 12/5
[24] = RP, 150 × 2.1 mm, 2.6 µm, 40 °C, 0.35 mL/min, estimated dead time 0.94 min; A: water + 0.1% formic acid, pH 3; B: acetonitrile + 0.1% formic acid, pH 3; gradient (min/%B) 0/0 1/0 12.5/100 14/100 14.2/0 15/0

Structure (SMILES) | LC retention time [1] [min] | LC retention time [2] [min] | LC retention time [3] [min] | LC retention time [4] [min] | LC retention time [5] [min] | LC retention time [6] [min] | LC retention time [7] [min] | LC retention time [8] [min] | LC retention time [9] [min] | LC retention time [10] [min] | LC retention time [11] [min] | LC retention time [12] [min] | LC retention time [13] [min] | LC retention time [14] [min] | LC retention time [16] [min] | LC retention time [17] [min] | LC retention time [18] [min] | LC retention time [19] [min] | LC retention time [20] [min] | LC retention time [21] [min] | other results
O=C(O)c1ccc(O)c(O)c1 [Protocatechuic acid] | 16.4 | 2.12 | 29.7 | 1.48 | 7.22 | 1.76 | 2.06 | 3.85 | 2.23 | 2.31 | 1.38 | 5.2 | 1.54 | 7.9 | 9.27 | 4.01 | 3.96 | 4.92 | 5.02 |  | LC retention time [15]: 1.55 min
O=C(O)C=Cc1ccc(O)cc1 [p-Coumaric acid] | 30.1 | 6.97 | 56.2 | 1.99 | 9.24 | 3.84 | 5.83 | 7.01 | 6.73 | 4.32 | 6.96 | 12.3 | 2.39 | 19 | 21.7 | 10.8 | 8.4 | 17.6 |  | 2.3 | LC retention time [22]: 3.45 min
COc1cc(/C=C/C(=O)O)ccc1O [Ferulic acid] | 32.7 | 7.16 | 61.3 | 2.17 | 9.48 | 4.13 | 6.79 | 7.59 | 7.28 | 4.64 | 4.67 | 12.5 | 2.51 | 21.7 | 23.8 | 11.2 | 9.17 | 20.7 | 14.4 | 2.44 | LC retention time [23]: 5.86 min; LC retention time [24]: 5.86 min
O=C(O)CNC(=O)c1ccccc1 [Hippuric acid] | 20.2 | 4.73 |  | 1.86 | 8.4 | 2.59 | 3.2 |  |  | 3.29 | 3.49 | 6.13 | 2.01 |  | 15.1 | 5.38 | 6.09 | 7.15 | 8.54 | 2.13 | LC retention time [15]: 3.8 min; LC retention time [22]: 3.07 min
COc1cc(C(=O)O)ccc1O [Vanillic acid] | 22.1 | 4.25 | 44.7 | 1.8 | 8.52 | 2.97 | 4.01 |  | 10 | 3.61 | 1.83 | 9.67 | 2.07 | 13.7 | 15.7 | 6.96 | 6.3 | 9.34 |  |  | LC retention time [23]: 3.36 min; LC retention time [24]: 3.6 min; LC retention time [22]: 3.2 min
